Assay results from patent EP4293019A1, “4-SUBSTITUTED (1H-BENZO[D]IMIDAZOL-2-YL)-1H-PYRAZOLES AS BUB1 INHIBITORS USEFUL FOR TREATING CANCERS” (Netherlands Translational Research Center Holding B.V., priority 2022, dated 2023).

How the values were obtained:
hBUB1 = target: T1, hBUB1 (Homo sapiens, UniProt O43683); assay: hBUB1 kinase activity assay (biochemical fluorescence polarization assay, IMAP); details: BUB1/BUB3 3.26 nM, ATP 15 µM, BUB1/BUB3 substrate 75 nM; N=2, n=2; read-out: hBUB1 pIC50 (converted)
T1 construct: purchased Carna Biosciences 05-187
Experimental: This protocol describes how the Kinase Activity Assay was performed to determine pIC50 values of compounds of general formula (I) against hBUB1.
Assays were performed in 384-well plates (Greiner, black, flat bottom, 781076) by sequential addition (final concentrations are indicated) of inhibitor (5 µL, 0.3 nM - 1 µM or 3 nM - 10 µM), BUB1/BUB3 (5 µL, 3.26 nM, Carna Biosciences (05-187), lot: 15CBS-0644 D), ATP (5 µL, 15 µM) and BUB1/BUB3 substrate (5 µL, 75 nM, Carna Biosciences (05-187MSSU)), all as 4x working solutions. The final concentration of DMSO was 1%. Assay reactions were stopped by addition of IMAP progressive binding reagent (20 µL, 1200x diluted, Molecular Devices (R8155), lot: 3117896). Each assay included the following controls: (i) a background control (treated with vehicle instead of inhibitor and BUB1/BUB3 substrate), (ii) MIN controls (treated with 5 µM BAY1816032 (MedChem Express) as inhibitor, used as 0% BUB1 activity) and (iii) MAX controls (treated with vehicle instead of inhibitor, used as 100% BUB1 activity). All inhibitors were tested in two separate assays and all inhibitor concentrations were tested in duplicate per assay (N=2, n=2).
For each assay, assay buffer (AB) was freshly prepared and consisted of 20 mM HEPES (prepared by diluting 1 M HEPES, pH 7.2), 5 mM MgCl2, 0.01% Tween-20 and 1 mM DTT. Stocks of inhibitors (in DMSO) were diluted in AB to obtain 4x working solutions (4% DMSO) and 5 µL was added to the assay plate. BUB1/BUB3 (3.26 µM (486 µg/mL) in storage buffer) was diluted in AB to obtain 13.0 nM of which 5 µL was added to all wells of the assay plate. The assay plate was centrifuged (1 min, 200 g) and incubated at RT for 30 min. ATP (4 mM in MilliQ) was diluted in AB to obtain 60 µM of which 5 µL was added to each well. BUB1/BUB3 substrate (1 mM) was diluted in 20 mM HEPES (prepared by diluting 1 M HEPES (pH 7.2) in MilliQ) to obtain 80 µM (this solution was freshly prepared every assay) and further diluted in AB to obtain 300 nM after which 5 µL was added to each well of the assay plate except for background control wells. The assay plate was centrifuged (1 min, 200 g) and incubated at RT in the dark for 180 min. IMAP progressive binding buffer A (5x) and IMAP progressive binding buffer B (5x) were mixed in a ratio to obtain 30% buffer A and 70% buffer B, which was subsequently diluted 5x in MilliQ. IMAP progressive binding reagent was diluted 600x in aforementioned mixture of buffer A and B (to obtain a 2x working solution) of which 20 µL was added to each well of the assay plate. The assay plate was centrifuged (1 min, 200 g) and incubated at RT in the dark for 90 min. Fluorescence polarization was measured on a CLARIOstar plate reader using the following settings: (i) optic settings → excitation = F: 482-16, dichroic = F: LP 504, emission = F: 530-40, (ii) optic = top optic, (iii) speed/precision = maximum precision, (iv) focus adjustment was performed for every assay and (v) gain adjustment was done by setting the target mP value to 35 mP for one of the MIN control wells. Data was normalized between MIN and MAX controls and data was plotted using GraphPad Prism 8.0 using "Nonlinear regression (curve fit)" and "log(inhibitor) vs. normalized response - Variable slope" to determine pIC50 values.
Inhibition is indicated as pIC50 ("-" = not measured). Compounds having an activity designated as "A" provided an pIC50 ≥ 7.0 (IC50 ≤100 nM); compounds having an activity designated as "B" provided an 6.3 ≤ pIC50 < 7.0 (100 nM<IC50 ≤ 500 nM); compounds having an activity designated as "C" provided an 6.0 ≤ pIC50 < 6.3 (500 nM < IC50 ≤ 1 µM); compounds having an activity designated as "D" provided an 6.0 < pIC50 ≤ 5.0 (1 µM < IC50 ≤ 10 µM); and compounds having an activity designated as "E" provided an pIC50 < 5.0 (IC50 >10 µM).

U2OS cells = assay: Cellular proliferation assay (SRB proliferation assay); type: cell-based; details: Homo sapiens, 72 h treatment, SRB staining, N=2, n=3
Experimental: This protocol describes how the Cellular Proliferation Assay was performed to determine pIC50 values of compounds of general formula (I) against U2OS cells.
U2OS (human osteosarcoma) cells were purchased at ATCC and were tested on regular basis for mycoplasma contamination. Cultures were discarded after 2-3 months of use. Cells were cultured at 37°C under 7% CO2 in DMEM (Sigma Aldrich, D6546) supplemented with GlutaMAX (2 mM, ThermoFisher), 10% (v/v) heat-inactivated newborn calf serum (Seradigm), penicillin and streptomycin (200 µg/mL each, Duchefa) (complete medium). Medium was refreshed every 2-3 days and cells were passaged by trypsinization twice a week at 80-90% confluence. Cell viability was assessed by Trypan Blue exclusion and cell quantification using a TC20™ Automated Cell Counter (Bio-Rad).
Assays were performed in 96-well plates (Greiner, Cellstar, 655180) by seeding (day 0), treatment (day 1) and subsequent incubation for 72 h. Cells were fixed, stained and staining was subsequently dissolved after which absorbance was measured. Each assay included the following controls: (i) a background control (to which no cells were added), (ii) t0 controls (separate assay plate in which cells were fixed on day 1, used as 0% proliferation), (iii) nontreated controls (present in each assay plate, treated with vehicle and used as 100% proliferation). Cells were treated with different concentrations of indicated inhibitor. All inhibitors were tested in two separate assays and all inhibitor concentrations were tested in triplicate per assay (N=2, n=3).
For each assay, U2OS cells from 10 cm dishes were seeded into 96-well plates (3,000 cells/well) and subsequently incubated overnight to allow for cell adherence. Stocks of inhibitor and vehicle (all in DMSO) were diluted in complete medium to obtain 2x working solutions (1% DMSO). Cell medium was replaced by fresh complete medium (50 µL), treatment was started by addition of the 2x working solutions (50 µL) and plates were incubated at 37°C for 72 h. Cell medium was replaced by fresh serum free medium (100 µL) and cells were fixed by addition of 30 µL 50% (w/v) aq. trichloroacetic acid after which the plates were incubated at 4°C for 60 min. Wells were emptied by shaking the plates upside down after which wells were washed three times with demineralized water and air-dried overnight. To each well, 60 µL of SRB solution (0.4% (w/v) in 1% aq. acetic acid) was added and plates were incubated for 30 min. The excess SRB was removed and the wells were washed three times with 1% aq. acetic acid and air-dried overnight. Bound SRB was redissolved by addition of 150 µL 10 mM TRIS (free-base) and absorbance was measured at 540 nm on a CLARIOstar plate reader. Data was normalized between t0 and nontreated controls and plotted using GraphPad Prism 8.0 using "Nonlinear regression (curve fit)" and "log(inhibitor) vs. normalized response - Variable slope" to determine pIC50 values.
Inhibition is indicated as pIC50 ("-" = not measured). Compounds having an activity designated as "A" provided an pIC50 ≥ 6.0 (IC50 ≤1 µM); compounds having an activity designated as "B" provided an 5.3 ≤ pIC50 < 6.0 (1 µM<IC50 ≤ 5 µM); compounds having an activity designated as "C" provided an 5.0 ≤ pIC50 < 5.3 (5 µM < IC50 ≤ 10 µM); compounds having an activity designated as "D" provided an 5.0 < pIC50 ≤ 4.7 (10 µM < IC50 ≤ 20 µM); and compounds having an activity designated as "E" provided an pIC50 < 4.7 (IC50 >20 µM).

T1 sequence (O43683 whole entry): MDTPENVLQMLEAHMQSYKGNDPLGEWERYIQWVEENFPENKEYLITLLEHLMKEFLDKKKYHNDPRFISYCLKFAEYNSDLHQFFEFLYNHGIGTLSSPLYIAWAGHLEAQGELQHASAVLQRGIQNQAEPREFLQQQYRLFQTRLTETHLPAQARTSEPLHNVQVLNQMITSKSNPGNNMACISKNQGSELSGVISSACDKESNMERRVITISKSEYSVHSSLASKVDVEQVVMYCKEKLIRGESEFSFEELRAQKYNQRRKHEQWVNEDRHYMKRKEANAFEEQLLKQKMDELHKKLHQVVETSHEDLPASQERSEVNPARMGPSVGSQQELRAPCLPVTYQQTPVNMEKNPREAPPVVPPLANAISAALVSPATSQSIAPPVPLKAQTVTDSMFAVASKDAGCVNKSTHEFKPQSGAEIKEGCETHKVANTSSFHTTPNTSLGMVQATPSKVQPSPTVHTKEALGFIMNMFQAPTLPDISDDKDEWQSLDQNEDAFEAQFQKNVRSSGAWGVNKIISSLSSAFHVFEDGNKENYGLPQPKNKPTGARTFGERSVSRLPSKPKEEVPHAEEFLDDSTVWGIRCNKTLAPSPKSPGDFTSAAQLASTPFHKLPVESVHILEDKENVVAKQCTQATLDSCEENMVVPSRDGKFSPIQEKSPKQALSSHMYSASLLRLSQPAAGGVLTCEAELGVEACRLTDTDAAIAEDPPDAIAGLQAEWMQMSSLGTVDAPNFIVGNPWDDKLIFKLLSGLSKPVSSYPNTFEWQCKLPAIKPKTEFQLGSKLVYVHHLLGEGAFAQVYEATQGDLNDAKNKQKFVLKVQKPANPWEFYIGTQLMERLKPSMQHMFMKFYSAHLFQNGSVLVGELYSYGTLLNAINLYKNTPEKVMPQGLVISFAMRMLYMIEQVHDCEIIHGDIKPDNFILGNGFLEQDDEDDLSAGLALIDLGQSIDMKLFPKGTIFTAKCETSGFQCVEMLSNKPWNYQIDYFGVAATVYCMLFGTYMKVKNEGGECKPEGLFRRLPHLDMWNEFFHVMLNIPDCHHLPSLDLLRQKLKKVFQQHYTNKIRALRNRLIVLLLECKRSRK
T1 sequence (O43684 whole entry partner): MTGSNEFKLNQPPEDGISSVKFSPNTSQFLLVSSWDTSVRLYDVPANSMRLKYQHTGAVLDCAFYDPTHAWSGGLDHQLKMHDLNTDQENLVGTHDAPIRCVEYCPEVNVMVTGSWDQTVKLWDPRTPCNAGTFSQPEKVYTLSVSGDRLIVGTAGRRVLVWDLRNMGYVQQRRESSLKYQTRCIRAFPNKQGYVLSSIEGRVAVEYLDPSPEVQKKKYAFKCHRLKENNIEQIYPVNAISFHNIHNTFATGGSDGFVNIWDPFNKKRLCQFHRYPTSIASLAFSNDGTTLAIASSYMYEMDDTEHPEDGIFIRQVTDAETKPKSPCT

SMILES | IC50 (hBUB1) [nM] | IC50 (U2OS cells) [nM]
N#Cc1cccc(-c2nccc(Nc3c[nH]nc3-c3nc4cc(CN5CCOCC5)ccc4[nH]3)n2)c1 [Compound 44, 3-(4-((3-(5-(Morpholinomethyl)-1H-benzo[d]imidazol-2-yl)-1H-pyrazol-4-yl)amino)pyrimidin-2-yl)benzonitrile] | 501 to 1000 | 1000 to 5010
COc1cnc(-c2cccc(C#N)c2)nc1Nc1c[nH]nc1-c1nc2cc(CN3CCOCC3)ccc2[nH]1 [Compound 54, 3-(5-Methoxy-4-((3-(5-(morpholinomethyl)-1H-benzo[d]imidazol-2-yl)-1H-pyrazol-4-yl)amino)pyrimidin-2-yl)benzonitrile] | ≤ 100 | 10000 to 20000
FC(F)(F)c1cccc(-c2nccc(Nc3c[nH]nc3-c3nc4cc(CN5CCOCC5)ccc4[nH]3)n2)c1 [Compound 43, N-(3-(5-(Morpholinomethyl)-1H-benzo[d]imidazol-2-yl)-1H-pyrazol-4-yl)-2-(3-(trifluoromethyl)phenyl)pyrimidin-4-amine] | 501 to 1000 | 1000 to 5010
c1ccc(Oc2nccc(Nc3c[nH]nc3-c3nc4cc(CN5CCOCC5)ccc4[nH]3)n2)cc1 [Compound 17, N-(3-(5-(morpholinomethyl)-1H-benzo[d]imidazol-2-yl)-1H-pyrazol-4-yl)-2-phenoxypyrimidin-4-amine] | 100 to 501 | 5010 to 10000
c1ccc(COc2nccc(Nc3c[nH]nc3-c3nc4cc(CN5CCOCC5)ccc4[nH]3)n2)cc1 [Compound 18, 2-(benzyloxy)-N-(3-(5-(morpholinomethyl)-1H-benzo[d]imidazol-2-yl)-1H-pyrazol-4-yl)pyrimidin-4-amine] | 100 to 501 | 1000 to 5010

Now from value to molecule:

IC50 (hBUB1) [nM] | IC50 (U2OS cells) [nM] | SMILES
≤ 100 | ≤ 1000 | C#Cc1cccc(-c2ncc(OC)c(Nc3c[nH]nc3-c3nc4cc(CN5CCOCC5)ccc4[nH]3)n2)c1 [Compound 52, 2-(3-Ethynylphenyl)-5-methoxy-N-(3-(5-(morpholinomethyl)-1H-benzo[d]imidazol-2-yl)-1H-pyrazol-4-yl)pyrimidin-4-amine]
≤ 100 | ≤ 1000 | COc1cnc(-c2c(F)ccc(Cl)c2F)nc1Nc1c[nH]nc1-c1nc2cc(CN3CCOCC3)ccc2[nH]1 [Compound 59, 2-(3-Chloro-2,6-difluorophenyl)-5-methoxy-N-(3-(5-(morpholinomethyl)-1H-benzo[d]imidazol-2-yl)-1H-pyrazol-4-yl)pyrimidin-4-amine]
≤ 100 | ≤ 1000 | COc1cnc(-c2cc(Cl)ccc2F)nc1Nc1c[nH]nc1-c1nc2cc(CN3CCOCC3)ccc2[nH]1 [Compound 57, 2-(5-Chloro-2-fluorophenyl)-5-methoxy-N-(3-(5-(morpholinomethyl)-1H-benzo[d]imidazol-2-yl)-1H-pyrazol-4-yl)pyrimidin-4-amine]
